Converted amounts (≈) assume the structure as drawn. One block for each compound: values may come before it.
Tests used:
[1] = Preparation of solid freeze-dried HPCD complexes: degree of incorporation; type: physicochemical; conditions: freeze-dried complex from 50% w/w HPCD (ASDS 5.1)
Description: An excess of E2-CDS was added and the solution then was purged with helium. The resulting suspension was then sonicated for 30 minutes, filtered through a glass filter (ASTM 10-15M, Pyrex No. 36060) and freeze-dried overnight. Best results were obtained by hard-freezing the aqueous solution of the E2-CDS/HPCD complex for at least 10 hours before lyophilization. The degree of complex formation was determined by dissolving a small amount of the dry complex in methanol and then analyzing by high pressure liquid chromatography (HPLC).
An excess of E2-CDS or other CDS was added to a 50% w/w solution of HPCD. The suspension was sonicated for 30 minutes, filtered through 0.45 µm PVDF membranes and freeze-dried. The degree of incorporation was determined either spectrophotometrically or by HPLC. In some cases, the effect of solubilizing agents on the degree of incorporation was examined. This involved adding small amounts of polyoxyethylene 20 cetyl ether (Brij), polyoxyethylene sorbitan monooleate (Tween 80) or ethanol to the aqueous solution prior to lyophilization.
The retention time was 5.2 min. Other compounds were assayed spectrophotometrically.
The solution was degassed and the suspension was sonicated for 30 minutes, after which it was filtered and the filtrate was lyophilized. The dried filtrate contained 65.6 mg testosterone propionate or 29.6 mg T-CDS1 per gram of cyclodextrin complex. Compounds were analyzed for decomposition by thin-layer chromatography and ultraviolet absorption.

[2] = Maximum concentrations of selected CDS in varying concentrations of selected cyclodextrins; type: physicochemical
Description: In further testing, maximum concentrations of selected CDS in varying concentrations of selected cyclodextrins were determined. The concentration of E2-CDS (mg/mL) was as follows: […]

[3] = Phase-solubility experiments in aqueous HPCD at 25±1°C
Description: For comparison, the solubilities of the drugs in water were also determined.
• Wavelength: 245 nm • Column: Waters µBondapak CN, 3.9 mm (id.) x 30 cm • Mobile phase: acetonitrile, acetic acid, water (60:1:39) containing 0.1% 1-hexasulfonic acid, sodium salt • Flow rate: 2.00 mL/min.
• Wavelength: 263 nm • Column: ASI C18, 10 µm, 3.9 mm (i.d.) x 30 cm • Mobile phase: acetonitrile, water (55:45) • Flow rate: 1.00 mL/min.
• Wavelength: 241 nm • Column: Waters µBondapak CN, 3.9 mm (i.d.) x 30 cm • Mobile phase: acetonitrile, water (6:4) • Flow rate: 2.00 mL/min.
• Wavelength: 280 nm • Column: ASI C18, 10 µm, 3.9 mm (i.d.) x 30 cm • Mobile phase: acetonitrile, water (55:45) • Flow rate: 2.00 mL/min.
• Wavelength: 248 nm • Column: Fisher Resolvex C18, 4.6 mm (i.d.) x 25 cm • Mobile phase: acetonitrile, water (6:4) • Flow rate: 1.50 mL/min.
• Wavelength: 248 nm • Column: Fisher Resolvex C18, 4.6 mm (i.d.) x 25 cm • Mobile phase: acetonitrile, water (7:3) • Flow rate: 2.00 mL/min.
• Wavelength: 253 nm • Column: Waters µBondapak CN, 3.9 mm (i.d.) x 30 cm • Mobile phase: acetonitrile, […], water (60:1:39) containing 0.1% 1-hexanesulfonic acid, sodium salt • Flow rate: 2.00 mL/min.
• Wavelength 308 nm • Column: Fisher Resolvex C18, 4.6 mm (i.d.) x 25 cm • Mobile phase: methanol, acetic acid, water (50:1:49) containing 0.1% 1-octanesulfonic acid, sodium salt • Flow rate: 2.00 mL/min.
• Wavelength: 240 nm • Column: Fisher Resolvex C18, 4.6 mm (i.d.) x 25 cm • Mobile phase: acetonitrile, water (6:4) • Flow rate: 1.50 mL/min.
• Wavelength: 240 nm • Column: Fisher Resolvex C18, 4.6 mm (i.d.) x 25 cm Mobile phase: acetonitrile, water (7:3) • Flow rate: 2.00 mL/min.
• Wavelength: 241 nm • Column: Fisher Resolvex C18, 4.6 mm (i.d.) x 25 cm • Mobile phase: acetonitrile, water (7:3) • Flow rate: 2.00 mL/min.
• Wavelength: 230 nm • Column: Waters µBondapak CN, 3.9 mm (i.d.) x 30 cm • Mobile phase: acetonitrile, water (35:65) • Flow rate: 2.00 mL/min.
• Wavelength: 258 nm • Column: Fisher Resolvex C18, 4.6 mm (i.d.) x 25 cm • Mobile phase: acetonitrile, water (55:45) • Flow rate: 2.00 mL/min.
• Wavelength: 325 nm • Column: Waters µBondapak C18, 10 µm, 3.9 mm (i.d.) x 30 cm • Mobile phase: acetonitrile, water (55:45) • Flow rate: 1.00 mL/min.

physchem [4] = assay: physchem
Description: After equilibration in a 30.0±0.2°C water bath in the dark for up to 72 hours, aliquots of the mixtures were filtered through 0.45 Mm membrane filters, diluted and the drug concentration determined by HPLC or UV methods.

physchem [5] = conditions: 50% w/w aqueous hpcd
Description: An excess of E2-CDS was sonicated with an aqueous solution of the appropriate solubilizing agent for 30 minutes. The suspension was then centrifuged, filtered through 0.45 µm polyvinylidene difluoride (Millex-HV4, Millipore®) membranes and analyzed by HPLC. […] An estimation of the bulk equilibrium constant was obtained by correlating the millimolarity of E2-CDS solubilized and the millimolarity of the cyclodextrin added. This latter value was calculated using the average molecular weight of the isomeric mixture determined by mass spectroscopy. The solubilizing effect of a 50% w/w solution of HPCD was also examined for a series of steroids and dihydropyridines (CDS). These studies were carried out in a similar manner to those previously described.
For the CDS, the wavelength monitored was 360 nm while for estrogen 220 nm was used.
Separation was achieved on an Analytical Sciences, Inc. (ASI) 10 µm particle size, C18 reversed phase 30 cm x 3.9 mm i.d. analytical column. The flow rate was 1 mL/min, the compounds were detected at 360 nm and in all determinations the temperature was ambient. […] For the GABA-CDS1, a mobile phase consisting of 50:1:1:48 of the same components was required. […] Other compounds were assayed spectrophotometrically.

Compound: 1-methyl-3-N-[3-(benzyloxycarbonyl)propyl]-carbamoyl-1,4-dihydropyridine [GABA-CDS1]
Amount of Drug in Dry Complex [1]: 160 mg/g

Compound: 1-methyl-3-{[2-(9-guanylmethoxy)ethoxy]carbonyl}-1,4-dihydropyridine [ACV-CDS]
Amount of Drug in Dry Complex [1]: 25 mg/g

Compound: 17β-{[(1-methyl-1,4-dihydropyridin-3-yl)carbonyl]oxy}-19-norpregn-4-en-20-yn-3-one [norethindrone-CDS]
Amount of Drug in Dry Complex [1]: 0.6 mg/g
concentration of the norethindrone-CDS ([2]; 40% hpcd): 7.13 mg/g
concentration of the norethindrone-CDS ([2]; 40% hpgcd): 15.9 mg/g

Compound: O=C(O)CCCc1ccc(N(CCCl)CCCl)cc1 [Chlorambucil]
solubility at 3 h (physchem [4]; 1% aqueous hpcd): 740 µg/mL (≈ 2.43 mM)
solubility at 84 h (physchem [4]; 1% aqueous hpcd): 550 µg/mL (≈ 1.81 mM)
solubility at 3 h (physchem [4]; 2% aqueous hpcd): 1480 µg/mL (≈ 4.86 mM)
solubility at 84 h (physchem [4]; 2% aqueous hpcd): 840 µg/mL (≈ 2.76 mM)
solubility at 3 h (physchem [4]; 3% aqueous hpcd): 2370 µg/mL (≈ 7.79 mM)
solubility at 84 h (physchem [4]; 3% aqueous hpcd): 680 µg/mL (≈ 2.24 mM)
solubility at 3 h (physchem [4]; 4% aqueous hpcd): 3220 µg/mL (≈ 10.6 mM)
solubility at 84 h (physchem [4]; 4% aqueous hpcd): 1500 µg/mL (≈ 4.93 mM)
solubility at 3 h (physchem [4]; 5% aqueous hpcd): 1460 µg/mL (≈ 4.8 mM)
solubility at 84 h (physchem [4]; 5% aqueous hpcd): 1800 µg/mL (≈ 5.92 mM)
solubility at 84 h (physchem [4]; 7% aqueous hpcd): 3760 µg/mL (≈ 12.4 mM)
solubility at 3 h (physchem [4]; 10% aqueous hpcd): 4960 µg/mL (≈ 16.3 mM)
solubility at 84 h (physchem [4]; 10% aqueous hpcd): 5200 µg/mL (≈ 17.1 mM)
solubility at 3 h (physchem [4]; 15% aqueous hpcd): 6360 µg/mL (≈ 20.9 mM)
solubility at 84 h (physchem [4]; 15% aqueous hpcd): 7600 µg/mL (≈ 25 mM)
solubility (physchem [4]; 20% aqueous hpcd): 13100 µg/mL (≈ 43 mM)
solubility at 3 h (physchem [4]; 20% aqueous hpcd): 8490 µg/mL (≈ 27.9 mM)
solubility at 84 h (physchem [4]; 20% aqueous hpcd): 13100 µg/mL (≈ 43 mM)
solubility (physchem [4]; 25% aqueous hpcd): 18400 µg/mL (≈ 60.5 mM)
solubility at 3 h (physchem [4]; 25% aqueous hpcd): 8850 µg/mL (≈ 29.1 mM)
solubility at 84 h (physchem [4]; 25% aqueous hpcd): 18400 µg/mL (≈ 60.5 mM)
solubility at 4 h (physchem [4]; 50% aqueous hpcd): ~30000 µg/mL (≈ 98.6 mM)
solubility at 3 h (physchem [4]; aqueous 7% hpcd): 2710 µg/mL (≈ 8.91 mM)
solubility (physchem [4]; water): 410 µg/mL (≈ 1.35 mM)
solubility at 3 h (physchem [4]; water (0% hpcd)): 10 µg/mL (≈ 0.0329 mM)
solubility at 84 h (physchem [4]; water (0% hpcd)): 410 µg/mL (≈ 1.35 mM)

Compound: C[C@@H]1C[C@H]2[C@@H]3CCC4=CC(=O)C=C[C@]4(C)[C@@]3(F)[C@@H](O)C[C@]2(C)[C@@]1(O)C(=O)CO [Dexamethasone]
solubility ([3]; 25% w/v hpcd): 24200 µg/mL (≈ 61.6 mM)
solubility ([3]; 50% w/w hpcd): 44300 µg/mL (≈ 113 mM)
solubility ([3]; water): 8 µg/mL (≈ 0.0204 mM)

Compound: COc1ccc2c(c1)CC[C@@H]1[C@@H]2CC[C@]2(C)[C@@H](O)CC[C@@H]12 [Estradiol 3-Methyl Ether]
solubility (physchem [5]): 30000 µg/mL (≈ 105 mM)

Compound: C[C@]12CC[C@@H]3c4ccc(O)cc4CC[C@H]3[C@@H]1C[C@@H](O)[C@@H]2O [Estriol]
solubility (physchem [5]): 40000 µg/mL (≈ 139 mM)

The remaining lines, values ahead:

solubility ([3]; 25% w/v hpcd): 34500 µg/mL (≈ 116 mM)
solubility ([3]; 50% w/w hpcd): 68200 µg/mL (≈ 230 mM)
solubility ([3]; water): 8 µg/mL (≈ 0.027 mM)
Compound: C#C[C@]1(O)CC[C@H]2[C@@H]3CCc4cc(O)ccc4[C@H]3CC[C@@]21C [17 α-Ethynylestradiol]

Increase in Solubility (HPCD/water) [3]: ∼4,600
solubility ([3]; 50% w/w hpcd): 4600 µg/mL (≈ 16.1 mM)
solubility ([3]; water): 1 µg/mL (≈ 0.00349 mM)
Compound: CC1=C(/C=C/C(C)=C/C=C/C(C)=C/CO)C(C)(C)CCC1 [All-trans-Retinol]

solubility (physchem [5]): 16000 µg/mL (≈ 36.2 mM)
Amount of Drug in Dry Complex [1]: 27 mg/g
Compound: CN1C=CCC(C(=O)NCCc2ccc(OC(=O)C(C)(C)C)c(OC(=O)C(C)(C)C)c2)=C1 [DA-CDS, 1-methyl-3-{{N-{β-[3,4-bis-(pivalyloxy)phenyl]ethyl}-carbamoyl}}-1,4-dihydropyridine]

Reference: patent EP0335545B2, “Pharmaceutical formulations for parenteral use” (UNIVERSITY OF FLORIDA, priority 1988, dated 1989)
